Consider eight molecules from ChEMBL document CHEMBL5223089, “Cyclosporin Structure and Permeability: From A to Z and Beyond” (J Med Chem, 2021).

Molecules are shown by their SMILES.

For the first data set, the species on record is Homo sapiens. In words: Binding affinity to mCherry labelled that cyclophilin (unknown origin) relative to control.
Conditions: not given
`C/C=C/C[C@@H](C)[C@@H](O)[C@H]1C(=O)N[C@@H](CC)C(=O)N(C)CC(=O)N(C)[C@@H](C(C)C)C(=O)N[C@@H](C(C)C)C(=O)N(C)[C@@H](CC(C)C)C(=O)N[C@@H](C)C(=O)N[C@H](C)C(=O)N(C)[C@@H](CC(C)C)C(=O)N(C)[C@@H](CC(C)C)C(=O)N(C)[C@@H](C(C)C)C(=O)N1C` returned an Activity of 126%.

Another data set is filed under the species Homo sapiens. Briefly: Binding affinity to mCherry labelled that cyclophilin (unknown origin) assessed as fold change.
Conditions: not given
With `C/C=C/C[C@@H](C)[C@@H](O)[C@H]1C(=O)N[C@@H](CC)C(=O)N(C)CC(=O)N(C)[C@@H](C(C)C)C(=O)N[C@@H](C(C)C)C(=O)N(C)[C@@H](CC(C)C)C(=O)N[C@@H](C)C(=O)N[C@H](C)C(=O)N(C)[C@@H](CC(C)C)C(=O)N(C)[C@@H](CC(C)C)C(=O)N(C)[C@@H](C(C)C)C(=O)N1C`, the fold change (FC) is 2.

Test system in the next data set: not listed separately
Briefly: Permeability of compound by PAMP assay. It counts as ADME. The conditions noted are these: not told; read-out: permeability.
Turning to `C/C=C/C[C@@H](C)[C@@H](O)[C@H]1C(=O)N[C@@H](C)C(=O)N(C)CC(=O)N(C)[C@@H](CC(C)C)C(=O)N[C@@H](C(C)C)C(=O)N(C)[C@@H](CC(C)C)C(=O)N[C@@H](C)C(=O)N[C@H](C)C(=O)N(C)[C@@H](CC(C)C)C(=O)N(C)[C@@H](CC(C)C)C(=O)N(C)[C@@H](C(C)C)C(=O)N1C`, the Papp stood at 7.9 ×10⁻⁶ cm/s.
Regarding `C/C=C/C[C@@H](C)[C@@H](O)[C@H]1C(=O)N[C@@H](CC)C(=O)N(C)CC(=O)N[C@@H](CC(C)C)C(=O)N[C@@H](C(C)C)C(=O)N(C)[C@@H](CC(C)C)C(=O)N[C@@H](C)C(=O)N[C@H](C)C(=O)N(C)[C@@H](CC(C)C)C(=O)N(C)[C@@H](CC(C)C)C(=O)N(C)[C@@H](C(C)C)C(=O)N1C`, the Papp came to 2.5 ×10⁻⁶ cm/s.
Still for that read-out and setting: next, `C/C=C/C[C@@H](C)[C@@H](O)[C@H]1C(=O)N[C@@H]([C@@H](C)O)C(=O)N(C)CC(=O)N(C)[C@@H](CC(C)C)C(=O)N[C@@H](C(C)C)C(=O)N(C)[C@@H](CC(C)C)C(=O)N[C@@H](C)C(=O)N[C@H](C)C(=O)N(C)[C@@H](CC(C)C)C(=O)N(C)[C@@H](CC(C)C)C(=O)N(C)[C@@H](C(C)C)C(=O)N1C`: 2.8 ×10⁻⁶ cm/s; `C/C=C/C[C@@H](C)[C@@H](O)[C@H]1C(=O)N[C@@H](CC)C(=O)N(C)CC(=O)N[C@@H](CC(C)C)C(=O)N[C@@H](C(C)C)C(=O)N[C@@H](CC(C)C)C(=O)N[C@@H](C)C(=O)N[C@H](C)C(=O)N(C)[C@@H](CC(C)C)C(=O)N(C)[C@@H](CC(C)C)C(=O)N(C)[C@@H](C(C)C)C(=O)N1C`: 4.1 ×10⁻⁶ cm/s; `C/C=C/C[C@@H](C)[C@@H](O)[C@H]1C(=O)N[C@@H](C(C)C)C(=O)N(C)CC(=O)N(C)[C@@H](CC(C)C)C(=O)N[C@@H](C(C)C)C(=O)N(C)[C@@H](CC(C)C)C(=O)N[C@@H](C)C(=O)N[C@H](C)C(=O)N(C)[C@@H](CC(C)C)C(=O)N(C)[C@@H](CC(C)C)C(=O)N(C)[C@@H](C(C)C)C(=O)N1C`: 4.4 ×10⁻⁶ cm/s.
On to `C/C=C/C[C@@H](C)[C@@H](O)[C@H]1C(=O)N[C@@H](CC)C(=O)N(C)CC(=O)N(C)[C@@H](CC(C)C)C(=O)N[C@@H](C(C)C)C(=O)N(C)[C@@H](CC(C)C)C(=O)N[C@@H](C)C(=O)N[C@H](C)C(=O)N(C)[C@@H](CC(C)C)C(=O)N(C)[C@@H](CC(C)C)C(=O)N[C@@H](C(C)C)C(=O)N1C`, for which the Papp came to 0.42 ×10⁻⁶ cm/s.
On the same count and under the same terms, next, `C/C=C/C[C@@H](C)[C@@H](OC(C)=O)[C@H]1C(=O)N[C@@H](CC)C(=O)N(C)CC(=O)N(C)[C@@H](CC(C)C)C(=O)N[C@@H](C(C)C)C(=O)N(C)[C@@H](CC(C)C)C(=O)N[C@@H](C)C(=O)N[C@H](C)C(=O)N(C)[C@@H](CC(C)C)C(=O)N(C)[C@@H](CC(C)C)C(=O)N(C)[C@@H](C(C)C)C(=O)N1C`: 3.3 ×10⁻⁶ cm/s.
